Data reported in publication PMC4377985, “Cytotoxic and Antibacterial Angucycline- and Prodigiosin- Analogues from the Deep-Sea Derived Streptomyces sp. SCSIO 11594” (Marine Drugs, 2015).
Values after ≈ are worked out from the molar mass of the structure shown. Like-named read-outs stand apart in the source and are kept apart here.

Tests used:
[1] = tested on: human breast adenocarcinoma cell line MCF-7; assay: in vitro cytotoxicity, MTT; format: cell-based
Experimental: (§1) The anticancer activity of the related natural products has been described in a number of literatures, and the structure activity relationships of related synthetic natural products have been reported.
(§2) IC50 values were calculated using GraphPad Prism 5 software. All data were obtained in triplicate and are presented as means ± SD.

[2] = tested on: human nasopharyngeal carcinoma cell line CNE2; assay: in vitro cytotoxicity, MTT; format: cell-based
Experimental: as §1, §2

[3] = in vitro cytotoxicity, MTT; format: cell-based; conditions: human, normal hepatic cell line HL7702, MTT, n = 3, mean ± SD
Experimental: as §1, §2

[4] = tested on: human lung cancer cell line A549; assay: in vitro cytotoxicity, MTT; format: cell-based
Experimental: as §1, §2

[5] = tested on: human hepatocarcinoma cancer cell line HepG2; assay: in vitro cytotoxicity, MTT; format: cell-based
Experimental: as §1, §2

[6] = tested on: four human cancer cell lines A549, CNE2, HepG2, MCF-7; assay: in vitro cytotoxicity, MTT, panel of four cancer cell lines; format: cell-based; conditions: for estimated therapeutic ratio (TR): comparison of tumor cell-derived IC50 values with HL7702 IC50; for fold more cytotoxic/potent than the positive control cisplatin: relative to cisplatin, cancer cell lines
Experimental: Compounds 1–5 were tested for potential in vitro cytotoxicity against human lung cancer cell line A549, human nasopharyngeal carcinoma cell line CNE2, human breast adenocarcinoma cell line MCF-7, human hepatocarcinoma cancer cell line HepG2, and the normal hepatic cell line HL7702. […] The anticancer activity of the related natural products has been described in a number of literatures, and the structure activity relationships of related synthetic natural products have been reported.
Compounds 1–5 were evaluated for cytotoxic activity using four human cancer cell lines, A549, CNE2, HepG2, MCF-7, one normal hepatic cell line HL7702 and previously reported MTT methodologies. IC50 values were calculated using GraphPad Prism 5 software. All data were obtained in triplicate and are presented as means ± SD. Cisplatin was used as a positive control.

MRSE shhs-E1 = assay: antibacterial activity, dilution susceptibility test; format: cell-based, methicillin-resistant Staphylococcus epidermidis; conditions: Staphylococcus epidermidis
Experimental: (§3) The antibacterial activities of compounds 1–5 were evaluated using MRSE shhs-E1, methicillin-resistant Staphylococcus aureus (MRSA) shhs-A1, Staphylococcus aureus ATCC 29213, Enterococcus faecalis ATCC29212, Escherichia coli ATCC 25922, Micrococcus luteus, and multidrug resistant Pseudomonas aeruginosa.
(§4) The antibacterial activities of compounds 1–5 were assessed using seven strains of pathogenic bacteria including MRSE shhs-E1, MRSA shhs-A1, Staphylococcus aureus ATCC 29213, Enterococcus faecalis ATCC29212, Escherichia coli ATCC 25922, Micrococcus luteus, and multidrug resistant Pseudomonas aeruginosa. Dilution antimicrobial susceptibility tests for aerobic bacteria were carried out as previously reported.

Micrococcus luteus = assay: as above; format: cell-based
Experimental: as §3, §4

[7] = tested on: Staphylococcus aureus ATCC 29213; assay: as above; format: cell-based; conditions: ATCC29213
Experimental: as §3, §4

[8] = tested on: Escherichia coli ATCC 25922; assay: as above; format: cell-based; conditions: ATCC25922
Experimental: as §3, §4

[9] = tested on: multidrug resistant Pseudomonas aeruginosa; assay: as above; format: cell-based
Experimental: as §3, §4

[10] = tested on: Enterococcus faecalis ATCC29212; assay: as above; format: cell-based
Experimental: as §3, §4

MRSA shhs-A1 = assay: as above; format: cell-based, methicillin-resistant Staphylococcus aureus; conditions: Staphylococcus aureus
Experimental: as §3, §4

[11] = MCF7, MCF-7, MTT, n = 3, mean ± SD, read-out: in vitro cytotoxicity IC50, MCF-7
[12] = CNE-2, CNE2, MTT, n = 3, mean ± SD, read-out: in vitro cytotoxicity IC50, CNE2
[13] = A549, MTT, n = 3, mean ± SD, read-out: in vitro cytotoxicity IC50, A549
[14] = HepG2, MTT, n = 3, mean ± SD, read-out: in vitro cytotoxicity IC50, HepG2

Row | SMILES | IC50 [1, 11] [µM] | IC50 [2, 12] [µM] | IC50 ([3]; HL7702 normal hepatic cells) [µM] | IC50 [4, 13] [µM] | IC50 [5, 14] [µM] | estimated therapeutic ratio (TR) [6] | fold more cytotoxic/potent than the positive control cisplatin [6] | MIC (MRSE shhs-E1; MRSE) [mg/L] | MIC (Micrococcus luteus) [mg/L] | MIC [7] [mg/L] | MIC [8] [mg/L] | MIC [9] [mg/L] | MIC [10] [mg/L] | MIC (MRSA shhs-A1) [mg/L] | other results
1 | Cc1cc(O)c2c3c(ccc2c1)C(=O)c1c(ccc([C@H]2C[C@@H](O)[C@H](O[C@H]4CC[C@@H](O)[C@H](C)O4)[C@@H](C)O2)c1O)C3=O [Compound 1, marangucycline A] | > 50 | > 50 | > 50 | > 50 | > 50 | – | – | – | – | – | – | – | – | – | –
2 | CCCCCCCCCCCC1=N/C(=C\c2[nH]c(-c3ccc[nH]3)cc2OC)C=C1 [Compound 4, undecylprodigiosin] | 1.11 ± 0.07 | 0.28 ± 0.02 | 12.47 ± 0.09 | 0.85 ± 0.01 | 4.67 ± 0.09 | 3–45 | 1–10 fold | > 64 | > 64 | > 64 | > 64 | > 64 | > 64 | > 64 | –
3 | Cc1cc(O)c2c3c(ccc2c1)C(=O)c1c(ccc(C2CC4OC5CC(=O)C(C)OC5OC4C(C)O2)c1O)C3=O (stereo not shown) [Compound 2, marangucycline B] | 0.24 ± 0.003 | 0.56 ± 0.02 | 3.67 ± 0.07 | 0.45 ± 0.03 | 0.43 ± 0.05 | 7–15 | 10–20 fold | – | – | – | – | – | – | – | IC50 ([6]; Homo sapiens, four cancer cell lines, read-out: IC50 values against cancer cell lines (range over the panel)): 0.24 to 0.56 µM
4 | Cc1cc(O)c2c3c(ccc2c1)C(=O)c1c(ccc([C@H]2C[C@@H](O)[C@H](O)[C@@H](C)O2)c1O)C3=O [Compound 3, dehydroxyaquayamycin] | 23.65 ± 0.09 | 22.27 ± 0.07 | 49.34 ± 0.17 | 16.4 ± 0.19 | 18.81 ± 0.12 | 2–3 | – | – | – | – | – | – | – | – | MIC (MRSE shhs-E1; MRSE shhs-E1, read-out: MIC): 16 mg/L (≈ 36.8 µM)
5 | CCC1CCCCCCCCC2=N/C(=C\c3[nH]c(-c4ccc[nH]4)cc3OC)C1=C2 (stereo not shown) [Compound 5, metacycloprodigiosin] | – | – | – | – | – | – | – | > 64 | > 64 | > 64 | > 64 | > 64 | > 64 | > 64 | IC50 ([1]; MCF7, read-out: in vitro cytotoxicity IC50, MCF-7): > 50 µM; IC50 ([2]; CNE-2, read-out: in vitro cytotoxicity IC50, CNE2): > 50 µM; IC50 [3]: > 50 µM; IC50 ([4]; A549, read-out: in vitro cytotoxicity IC50, A549): > 50 µM; IC50 ([5]; HepG2, read-out: in vitro cytotoxicity IC50, HepG2): > 50 µM
